Data on 17 compounds can be found in US5317103A, “Indole-substituted five-membered heteroaromatic compounds as 5-HT1 agonists” (Merck Sharp & Dohme Limited, priority 1992, dated 1994).

One assay deals with T1, 5-HT1 -like receptor (Oryctolagus cuniculus, UniProt P49144).
T1 construct: contraction of the saphenous vein of New Zealand White rabbits; from tissue; host or cells: saphenous vein of New Zealand White rabbits
T1 sequence (P49144 whole entry): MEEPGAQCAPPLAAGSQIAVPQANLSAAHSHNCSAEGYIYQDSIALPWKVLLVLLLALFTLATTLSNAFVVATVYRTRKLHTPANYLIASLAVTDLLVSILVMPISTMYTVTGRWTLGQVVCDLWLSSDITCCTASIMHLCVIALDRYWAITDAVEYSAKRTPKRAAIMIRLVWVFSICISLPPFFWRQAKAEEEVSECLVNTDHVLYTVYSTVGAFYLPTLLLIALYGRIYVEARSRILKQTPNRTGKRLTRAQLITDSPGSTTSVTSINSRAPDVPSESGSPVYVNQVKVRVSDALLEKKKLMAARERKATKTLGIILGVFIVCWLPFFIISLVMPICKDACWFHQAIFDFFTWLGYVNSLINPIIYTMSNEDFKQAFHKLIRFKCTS
The experiment in a line: agonist-mediated contraction of the saphenous vein of New Zealand White rabbits. The class given is cell-based.
Conditions: not given
The protocol: The activity of test compounds as agonists of the 5-HT1 -like receptor was measured in terms of their ability to mediate contraction of the saphenous vein of New Zealand White rabbits, using the procedure described in Arch. Pharm., 1990, 342, 111. Agonist potencies were calculated as -log10 EC50 (pEC50) values, from plots of percentage 5-HT (1 μm) response against the concentration of the agonist.
For `NCCc1c[nH]c2ccc(-c3nc(Cc4ccccc4)no3)cc12` [Example 1, 2-[5-(5-(3-Benzyl-1,2,4-oxadiazol)-yl)-1H-indol-3-yl]ethylamine], the EC50 is at most 10 µM.
On the same count and under the same terms, with `NCCc1c[nH]c2ccc(Cc3nc(Cc4ccccc4)no3)cc12` [Example 4] the figure was at most 10 µM; with `NCCc1c[nH]c2ccc(Cc3nc(N)no3)cc12` [Example 6], at most 10 µM; with `CC(=O)Nc1ccc(Cc2noc(-c3ccc4[nH]cc(CCN(C)C)c4c3)n2)cc1` [Example 27, N,N-Dimethyl-2-[5-[5-(3-(4-Acetylaminobenzyl)-1,2,4-oxadiazol)yl]-1H-indol-3-yl]ethylamine], at most 10 µM.
Same read-out and setting: the same measure for `CN(C)CCc1c[nH]c2ccc(Cc3nc(N)no3)cc12` [Example 30, N,N-Dimethyl-2-[5-[5-(3-Amino-1,2,4-oxadiazol)ylmethyl]-1H-indol-3-yl]ethylamine]: at most 10 µM; for `NCCc1c[nH]c2ccc(-c3nc(Cc4ccc(NC(N)=O)cc4)no3)cc12` [Example 44, 2-[5-(5-(3-(4-Carbamoylaminobenzyl)-1,2,4-oxadiazol)yl)-1H-indol-3-yl]ethylamine]: at most 10 µM; for `NCCc1c[nH]c2ccc(-c3nc(N)no3)cc12` [Example 45, 2-[5-(5-(3-Amino-1,2,4-oxadiazol)-yl)-1H-indol-3-yl]ethylamine]: at most 10 µM.
Same read-out and setting: with `CN(C)CCc1c[nH]c2ccc(-c3nc(N)no3)cc12` [Example 49, N,N-Dimethyl-2-[5-(5-(3-amino-1,2,4-oxadiazol)yl)-1H-indol-3yl]ethylamine] the figure was at most 10 µM; with `CN(C)CCc1c[nH]c2ccc(-c3nc(Cc4ccc(NC(N)=O)cc4)no3)cc12` [Example 52, N,N-Dimethyl-2[5-(5-(3-(4-carbamoylaminobenzyl)-1,2,4-oxadiazol)yl)-1H-indol-3-yl]ethylamine], at most 10 µM.
For the compound `CN(C)CCc1c[nH]c2ccc(-c3nc(CCNC(=O)OC(C)(C)C)no3)cc12` [Example 53, N,N-dimethyl-2-[5-(5-(3-(2-t-butyloxycarbonylamino)ethyl-1,2,4-oxadiazol)yl)-1H-indol-3-yl]ethylamine], the EC50 was at most 10 µM.
For `CN(C)CCc1c[nH]c2ccc(-c3nc(CCNS(C)(=O)=O)no3)cc12` [Example 56, N,N-dimethyl-2-[5-(5-(3-(2-methylsulphonylamino)ethyl-1,2,4-oxadiazol)yl)-1H-indol-3-yl]ethylamine], the EC50 was at most 10 µM.
Same read-out and setting: the same measure for `CNS(=O)(=O)c1ccc(Cc2noc(Cc3ccc4[nH]cc(CCN(C)C)c4c3)n2)cc1` [Example 65, N,N-Dimethyl-2-[5-(5-(3-(4-methylaminosulphonylbenzyl)-1,2,4-oxadiazol)ylmethyl)-1H-indol-3-yl]ethylamine]: at most 10 µM; for `CN(C)CCc1c[nH]c2ccc(Cc3nc(CNC(=O)c4ccccc4)no3)cc12` [Example 88, N,N-Dimethyl-2-[5-(5-(3-phenylcarboxamidomethyl-1,2,4-oxadiazol)ylmethyl)-1H-indol-3-yl]ethylamine]: at most 10 µM.
`CN(C)CCc1c[nH]c2ccc(Cc3nc(N4CCN(C(=O)OC(C)(C)C)CC4)no3)cc12` [Example 93, N,N-Dimethyl-2-[5-(5-(3-(4-^t-butyloxycarbonyl)piperazine-1,4-yl-1,2,4-oxadiazol)ylmethyl)-1H-indol-3-yl]ethylamine] displayed a concentration giving a half-maximal response (EC50) of at most 10 µM.

The same assay, now with this note: rabbit saphenous vein contraction; from plots of percentage 5-HT (1 μm) response against agonist concentration.
In the case of `CN(C)CCc1c[nH]c2ccc(-c3nc(Cc4ccc(NS(C)(=O)=O)cc4)no3)cc12` [Example 28, N,N-Dimethyl-2-[5-[5-(3-(4-Methylsulphonylaminobenzyl)-1,2,4-oxadiazol)yl]-1H-indol-3-yl]ethyl amine], the “agonist potency -log10 EC50 (pEC50)” value is given as “not less than 5.0”.
For the compound `CN(C)CCc1c[nH]c2ccc(CCc3nc(N)no3)cc12` [Example 61, N,N-Dimethyl-2-[5-(2-(5-(3-amino-1,2,4-oxadiazol)yl)ethyl)-1H-indol-3-yl]ethylamine], the “agonist potency -log10 EC50 (pEC50)” value is reported as “not less than 5.0”.

The assay is the same for the next values; noted with them: rabbit saphenous vein contraction; from plots of percentage 5-HT (1 μm) response against agonist concentration; read-out: agonist potency -log10 EC50 (pEC50) (converted).
As to `CN1CCC(c2c[nH]c3ccc(Cc4nc(N)no4)cc23)CC1` [Example 110, 4-[5-(3-Amino-1,2,4-oxadiazol-5-ylmethyl)-1H-indol-3-yl]N-methylpiperidine], the EC50 is at most 10 µM.
